The subject of assay [1] is human colon cancer cells HCT-116 [人结肠癌细胞HCT-116]. Put plainly: Antiproliferative activity on human colon cancer HCT-116 cells (MTT staining). The class given is cell-based. The following applies: HCT-116 wild type, 72 h.
Assay [2] has as its target T1, full-length USP7 enzyme [全长USP7酶] (Homo sapiens, UniProt Q93009).
T1 construct: 全长USP7蛋白,Ub-AMC底物蛋白,实验缓冲液
Put plainly: Inhibition of full-length USP7 enzyme in vitro (Ub-AMC method). As to conditions: half-maximal inhibitory concentration; full-length USP7, Ub-AMC substrate, 30 min preincubation at room temperature (25℃), 2 h reaction, pH 7.6; read-out: EC50 (the source's name). Type of assay: biochemical.

T1 sequence (Q93009 whole entry): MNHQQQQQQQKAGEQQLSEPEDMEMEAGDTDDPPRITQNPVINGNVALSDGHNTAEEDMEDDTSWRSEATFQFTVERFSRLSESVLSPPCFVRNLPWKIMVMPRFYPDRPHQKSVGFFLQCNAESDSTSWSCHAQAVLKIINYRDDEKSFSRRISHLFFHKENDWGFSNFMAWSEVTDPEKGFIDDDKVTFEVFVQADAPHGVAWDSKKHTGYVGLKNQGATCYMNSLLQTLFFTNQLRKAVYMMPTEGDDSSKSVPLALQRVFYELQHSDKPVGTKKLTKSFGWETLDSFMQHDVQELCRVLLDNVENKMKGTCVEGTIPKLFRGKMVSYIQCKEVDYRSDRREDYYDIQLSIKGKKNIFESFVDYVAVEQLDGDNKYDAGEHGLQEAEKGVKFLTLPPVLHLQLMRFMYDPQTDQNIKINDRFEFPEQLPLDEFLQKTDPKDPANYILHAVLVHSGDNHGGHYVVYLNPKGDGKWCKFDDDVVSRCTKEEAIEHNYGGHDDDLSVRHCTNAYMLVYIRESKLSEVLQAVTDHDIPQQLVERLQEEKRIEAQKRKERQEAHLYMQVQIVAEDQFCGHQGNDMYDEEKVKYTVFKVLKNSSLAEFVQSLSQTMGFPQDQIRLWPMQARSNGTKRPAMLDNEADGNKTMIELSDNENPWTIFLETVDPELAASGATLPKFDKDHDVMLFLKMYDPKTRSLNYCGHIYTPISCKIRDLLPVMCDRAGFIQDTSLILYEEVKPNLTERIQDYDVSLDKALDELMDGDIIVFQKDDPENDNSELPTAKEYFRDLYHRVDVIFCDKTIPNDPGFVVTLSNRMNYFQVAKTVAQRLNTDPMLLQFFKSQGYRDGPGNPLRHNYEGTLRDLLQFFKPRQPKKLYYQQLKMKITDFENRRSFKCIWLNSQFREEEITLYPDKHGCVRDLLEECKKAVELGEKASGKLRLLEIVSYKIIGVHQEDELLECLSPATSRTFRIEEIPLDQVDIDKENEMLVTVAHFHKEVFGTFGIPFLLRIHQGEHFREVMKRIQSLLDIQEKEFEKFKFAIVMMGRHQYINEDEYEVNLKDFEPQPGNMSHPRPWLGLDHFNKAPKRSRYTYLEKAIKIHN

`CC1CS(=O)(=O)c2cc(NC(=O)c3cc([N+](=O)[O-])c(Sc4c(Cl)cncc4Cl)o3)ccc21` (stereo not shown) [I-1, 5-((3,5-二氯吡啶-4-基)硫基)-N-(3-甲基-1,1-二氧代-2,3-二氢苯并[b]噻吩-6-基)-4-硝基呋喃-2-甲酰胺]: the IC50 in assay [1] (Homo sapiens) and in assay [2] was above 50 µM throughout.
Take `CC1CS(=O)(=O)c2cc(NC(=O)c3cc([N+](=O)[O-])c(Sc4c(Cl)cncc4Cl)[nH]3)ccc21` (stereo not shown) [I-2, 5-((3,5-二氯吡啶-4-基)硫基)-N-(3-甲基-1,1-二氧代-2,3-二氢苯并[b]噻吩-6-基)-4-硝基-1H-吡咯-2-甲酰胺]: the IC50 in assay [1] (Homo sapiens) and in assay [2] was above 50 µM in each case.
In the case of `CC1CS(=O)(=O)c2cc(NC(=O)c3cc([N+](=O)[O-])c(Sc4c(Cl)cncc4Cl)n3C)ccc21` (stereo not shown) [I-3, 5-((3,5-二氯吡啶-4-基)硫基)-1-甲基-N-(3-甲基-1,1-二氧代-2,3-二氢苯并[b] 噻吩-6-基)-4-硝基-1H-吡咯-2-甲酰胺], the IC50 in assay [1] (Homo sapiens) and in assay [2] was above 50 µM each time.
Regarding `CN1CCC(Oc2ccc(NC(=O)c3cc([N+](=O)[O-])c(Sc4c(Cl)cncc4Cl)s3)cc2)C1` (stereo not shown) [I-4, 5-((3,5-二氯吡啶-4-基)硫基)-N-(4-((1-甲基吡咯烷-3-基)氧基)苯基) -4-硝基噻吩-2-甲酰胺], the IC50 in assay [1] (Homo sapiens) turned out to be 2.65 µM; in assay [2] it was 4.45 µM.
Take `CN1CCC(Oc2ccc(NC(=O)c3cc([N+](=O)[O-])c(Sc4c(Cl)cncc4Cl)s3)cc2)CC1` [I-5, 5-((3,5-二氯吡啶-4-基)硫基)-N-(4-((1-甲基哌啶-4-基)氧基)苯基)-4-硝基噻吩-2-甲酰胺]: the IC50 in assay [1] (Homo sapiens) amounted to 2.39 µM; in assay [2] it was 2.85 µM.
On the same counts, the results for `CN1CCCC(Oc2ccc(NC(=O)c3cc([N+](=O)[O-])c(Sc4c(Cl)cncc4Cl)s3)cc2)CC1` (stereo not shown) [I-6, 5-((3,5-二氯吡啶-4-基)硫基)-N-(4-((1-甲基吖庚烷-4-基)氧基)苯基)-4-硝基噻吩-2-甲酰胺] are 1.98 µM and 4.56 µM.
On the same counts, the results for `CN1CCCN(c2ccc(NC(=O)c3cc([N+](=O)[O-])c(Sc4c(Cl)cncc4Cl)s3)cc2)CC1` [I-7, 5-((3,5-二氯吡啶-4-基)硫基)-N-(4-(4-甲基-1,4-二氮杂环庚烷-1-基)苯基)-4-硝基噻吩-2-甲酰胺] are 3.48 µM and 6.9 µM.
Take `CS(=O)(=O)N1CCN(c2ccc(NC(=O)c3cc([N+](=O)[O-])c(Sc4c(Cl)cncc4Cl)s3)cc2)CC1` [I-9, 5-((3,5-二氯吡啶-4-基)硫基)-N-(4-(4-(甲基磺酰基)哌嗪-1-基)苯基) -4-硝基噻吩-2-甲酰胺]: the IC50 in assay [1] (Homo sapiens) amounted to 2.99 µM; in assay [2], 42.5 µM.
With `CN1CCN(C(=O)c2ccc(NC(=O)c3cc([N+](=O)[O-])c(Sc4c(Cl)cncc4Cl)s3)cc2)CC1` [I-10, 5-((3,5-二氯吡啶-4-基)硫基)-N-(4-(4-甲基哌嗪-1-羰基)苯基)-4-硝基噻吩-2-甲酰胺], the IC50 in assay [1] (Homo sapiens) turned out to be 3.36 µM; in assay [2], 2.96 µM.
On the same counts, the results for `CN(C)CCN1CCN(C(=O)c2ccc(NC(=O)c3cc([N+](=O)[O-])c(Sc4c(Cl)cncc4Cl)s3)cc2)CC1` [I-11, 5-((3,5-二氯吡啶-4-基)硫基)-N-(4-(4-(2-(二甲基氨基)乙基)哌嗪-1-羰基)苯基)-4-硝基噻吩-2-甲酰胺] are 7.63 µM and 2.5 µM.
Taken in the same sequence, the figures for `O=C(NCCN1CCOCC1)c1ccc(NC(=O)c2cc([N+](=O)[O-])c(Sc3c(Cl)cncc3Cl)s2)cc1` [I-12, ((3,5-二氯吡啶-4-基)硫基)-N-(4-((2-吗啉代乙基)氨基甲酰基)苯基)-4-硝基噻吩-2-甲酰胺] were 1.82 µM and 1.18 µM.
`CN1CCN(CC(=O)NCc2ccc(NC(=O)c3cc([N+](=O)[O-])c(Sc4c(Cl)cncc4Cl)s3)cc2)CC1` [I-14, ((3,5-二氯吡啶-4-基)硫基)-N-(4-((2-(4-甲基哌嗪-1-基)乙酰氨基)甲基) 苯基)-4-硝基噻吩-2-甲酰胺]: the IC50 in assay [1] (Homo sapiens) stood at 4.74 µM; in assay [2] it was 3.65 µM.
As for `CN1CCN(CC(=O)Nc2ccc(NC(=O)c3cc([N+](=O)[O-])c(Sc4c(Cl)cncc4Cl)s3)cc2)CC1` [I-15, 5-((3,5-二氯吡啶-4-基)硫基)-N-(4-(2-(4-甲基哌嗪-1-基)乙酰氨基)苯 基)-4-硝基噻吩-2-甲酰胺], the results for the IC50 in assay [1] (Homo sapiens) and in assay [2] were 4.87 µM and 7.26 µM, respectively.
Turning to `O=C(NCCN1CCOCC1)c1cc([N+](=O)[O-])c(Sc2c(Cl)cncc2Cl)s1` [I-16, 5-((3,5-二氯吡啶-4-基)硫基)-N-(2-吗啉代乙基)-4-硝基噻吩-2-甲酰胺], the results for the IC50 in assay [1] (Homo sapiens) and in assay [2] were 4.82 µM and 4.59 µM, respectively.
Taken in the same sequence, the figures for `CN(C)CCN1CCN(C(=O)c2cc([N+](=O)[O-])c(Sc3c(Cl)cncc3Cl)s2)CC1` [I-17, (5-((3,5-二氯吡啶-4-基)硫基)-4-硝基噻吩-2-基)(4-(2-(二甲基氨基)乙 基)哌嗪-1-基)甲酮] were 8.53 µM and 6.59 µM.
Take `O=C(NCCc1ccc2c(c1)OCO2)c1cc([N+](=O)[O-])c(Sc2c(Cl)cncc2Cl)s1` [I-18, N-(2-(苯并[d][1,3]二氧杂环戊烯-5-基)乙基)-5-((3,5-二氯吡啶-4-基)硫基)-4-硝基噻吩-2-甲酰胺]: the IC50 in assay [1] (Homo sapiens) and in assay [2] was above 50 µM throughout.
For “((3,5-二氯吡啶-4-基)硫基)-N-(4-((2-(4-甲基哌嗪-1-基)乙酰氨基)甲基) 苯基)-4-硝基噻吩-2-甲酰胺 [I-13]”, the IC50 in assay [1] was 3.26 µM; in assay [2], 3.71 µM.

These data come from patent publication CN109096271A, “噻吩类化合物及其作为usp7抑制剂和抗肿瘤药物的应用” (China Pharmaceutical University, priority 2018, dated 2018).
